Source: patent US20220267352A1, “RAPAMYCIN ANALOGS AND USES THEREOF” (Anakuria Therapeutics, Inc., priority 2021, published 2022)

What was measured:
Type in all cases: cell-based
[1] = test system: p-p70 S6 Kinase (Thr389) in MCF-7 cells; assay: AlphaLISA Ultra pS6K1 assay; settings: Homo sapiens, 1.5 h; MCF7 cells, 90 min
Summary of the method: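 MCF-7 cells seeded 20–24 h, given fresh medium 2 h, then treated with compounds 90 min (0.5% DMSO final). Cells lysed, lysates frozen at −80 °C, then Thr389-phosphorylated S6K1 detected by AlphaLISA Ultra with acceptor beads 2 h, then donor beads 2 h.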

[2] = test system: pS6K1 T389 and pAkt S473 in PC3 cells; assay: Western blot based pS6K1 and pAKT assay at 24 and 48 hour timepoints
Description: Example 57: Western Blot Based pS6K1 and pAKT Assay at 24 and 48 Hour Timepoints
Assay Protocol: • 1. Seed six well plate with 500,000 PC3 cells per well and incubate for 20˜24 hour. • 2. Add compounds into the cell plate. Incubate for 24 to 48 hours. • 4. Plate is placed on ice and the media is removed via aspiration. The wells are washed with 1 mL of 1x PBS and then fully aspirated. • 5. 110 μL of 1% Triton Lysis Buffer is added and each well is scraped vigorously. • 6. Cell homogenates are transferred to 1.5 mL eppendorf tubes on ice and spun down at 4° C. for 10 minutes at 10,000 rpm. • 7. Protein concentration of resulting cell lysates were quantified utilizing a Bradford assay and the samples run analyzed via Western blot on 4-12% Bis/Tris gels with 1×MES buffer. • 8. The gels were transferred onto membranes at 50V for 100 minutes, blocked with Odyssey Blocking buffer for 30 minutes then incubated overnight with primary antibody (pS6K1 T389 Rabbit or pAkt S473 Rabbit) overnight at 4° C. on a rotator. • 9. The membranes were washed 3× with TBS-T with a 5 minute incubation between each wash then incubated with secondary antibody (LiCor IRDye 800 Donkey Anti Rabbit) for at least 30 minutes. • 10. The membranes were washed 3× with TBS-T with a 5 minute incubation between each wash. • 11. The gels were then incubated for 5 minutes with PBS at room temperature then imaged using a Li-Cor.
Compounds that are not selective by comparing pS6K1 and pAKT IC50 by kinase assays are indicated by “NO” in the “mTORC1 selective @ 90 min” column of Table 4. […] Compounds that are not selective at the 24 hrs mark are indicated by “NO” in the “mTORC1 selective @ 24 hrs” column of Table 4. “N/A” stands for “not assayed” and “N/C” stands for “not calculated”.

[3] = test system: p-Akt 1/2/3 (Ser473) in MCF-7 cells; assay: AlphaLISA Ultra pAKT assay; settings: Homo sapiens, 1.5 h; MCF7 cells, 90 min
Summary of the method: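 MCF-7 cells (16,000˜20,000 per well in 36 μL medium) were seeded in Corning 3701 plates for 20˜24 hour, refreshed with new medium for 90 minutes, then given 12 μL of 4× compound (0.5% final DMSO). Cells were lysed with 2× lysis buffer, and lysate was analyzed by AlphaLISA Ultra pAKT using acceptor and donor beads, read on an EnSpire reader.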

mTORC1 over mTORC2 = mTORC1 over mTORC2 selectivity by comparing pS6K1 and pAKT IC50; settings: by comparing pS6K1 and pAKT IC50, 90 min
Summary of the method: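 MCF-7 cells were treated with compounds (0.5% final DMSO) for 90 minutes in one protocol and 2 hours in the other, then lysed. Phospho-signal in lysates was read by bead-based donor/acceptor proximity assay. pS6K1 and pAKT IC50 values were compared to judge mTORC1 over mTORC2 selectivity, at 90 min and at 24 hrs.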

Row | Structure (SMILES) | IC50 [1] [nM] | mTORC1 selective @ 24 hrs [2] | IC50 [3] [nM] | mTORC1 selective @ 90 min (mTORC1 over mTORC2)
1 | COCCOCCO[C@H]1C[C@@H]2CC[C@@H](C)[C@@](O)(O2)C(=O)C(=O)N2CCCC[C@H]2C(=O)O[C@H]([C@H](C)C[C@@H]2CC[C@@H](OC(F)F)[C@H](OC)C2)CC(=O)[C@H](C)/C=C(\C)[C@@H](O)[C@@H](OC)C(=O)[C@H](C)C[C@H](C)/C=C/C=C/C=C/1C [I-4, (22E,24E,26E,27E,33R,34S,35R,36R,38S,40S,42S,43S,44R,45R,55R)-43-[(1R)-2-[(1S,3R,4R)-4-(difluoromethoxy)-3-methoxy-cyclohexyl]-1-methyl-ethyl]-44,55-dihydroxy-45-methoxy-42-[2-(2-methoxyethoxy)ethoxy]-33,34,35,36,46,47-hexamethyl-64,65-dioxa-56-azatricyclohexatriaconta-22,24,26(46),27(47)-tetraene-48,49,50,51,52-pentone] | 1 to 10 | Yes |  | 
2 | CO[C@@H]1C[C@H](C[C@@H](C)[C@@H]2CC(=O)[C@H](C)/C=C(\C)[C@@H](O)[C@@H](OC)C(=O)[C@H](C)C[C@H](C)/C=C/C=C/C=C(\C)[C@@H](OCC3COCCO3)C[C@@H]3CC[C@@H](C)[C@@](O)(O3)C(=O)C(=O)N3CCCC[C@H]3C(=O)O2)CC[C@H]1OC(F)F (stereo partly drawn) [I-9, (24E,26E,28E,29E,32R,33S,34R,35R,37S,39S,41S,42S,44R,45R,55R)-42-[(1R)-2-[(1S,3R,4R)-4-(difluoromethoxy)-3-methoxy-cyclohexyl]-1-methyl-ethyl]-41-(1,4-dioxan-2-ylmethoxy)-44,55-dihydroxy-45-methoxy-32,33,34,35,46,47-hexamethyl-66,67-dioxa-56-azatricyclohexatriaconta-24,26,28(46),29(47)-tetraene-48,49,50,51,52-pentone] | 1 to 10 | Yes |  | 
3 | CO[C@@H]1C[C@H](C[C@@H](C)[C@@H]2CC(=O)[C@H](C)/C=C(\C)[C@@H](O)[C@@H](OC)C(=O)[C@H](C)C[C@H](C)/C=C/C=C/C=C(\C)[C@@H](OCCOC3COC3)C[C@@H]3CC[C@@H](C)[C@@](O)(O3)C(=O)C(=O)N3CCCC[C@H]3C(=O)O2)CC[C@H]1OC(=O)N(C)CCN1CCOCC1 [I-18, [(43S,45R,47R)-4-[(2R)-2-[(28E,30E,32E,33E,39R,40S,41R,42R,44S,46S,48S,49S,51R,52R,62R)-51,62-dihydroxy-52-methoxy-39,40,41,42,53,54-hexamethyl-48-[2-(oxetan-3-yloxy)ethoxy]-55,56,57,58,59-pentaoxo-76,77-dioxa-64-azatricyclohexatriaconta-28,30,32(53),33(54)-tetraen-49-yl]propyl]-47-methoxy-45-cyclohexyl] N-methyl-N-(2-morpholinoethyl)carbamate] |  | Yes |  | 
4 | CO[C@@H]1/C(C)=C/[C@@H](C)C(=O)C[C@@H]([C@H](C)C[C@@H]2CC[C@@H](OP(C)(C)=O)[C@H](OC)C2)OC(=O)[C@@H]2CCCCN2C(=O)C(=O)[C@]2(O)O[C@@H](CC[C@H]2C)C[C@H](OCCOC2CCOCC2)/C(C)=C/C=C/C=C/[C@@H](C)C[C@@H](C)C(=O)[C@@H]1OC [I-55, (1R,9S,12S,15R,16E,18R,19R,21R,23S,24E,26E,28E,30S,32S,35R)-12-[(1R)-2-[(1S,3R,4R)-4-dimethylphosphoryloxy-3-methoxy-cyclohexyl]-1-methyl-ethyl]-1-hydroxy-18,19-dimethoxy-15,17,21,23,29,35-hexamethyl-30-(2-tetrahydropyran-4-yloxyethoxy)-11,36-dioxa-4-azatricyclo[30.3.1.0^4,9]hexatriaconta-16,24,26,28-tetraene-2,3,10,14,20-pentone] |  | No |  | 
5 | COCCO[C@@H]1CC[C@@H](C[C@@H](C)[C@@H]2CC(=O)[C@H](C)/C=C(\C)[C@@H](O)[C@@H](OC)C(=O)[C@H](C)C[C@H](C)/C=C/C=C/C=C(\C)[C@@H](OCc3cnccn3)C[C@@H]3CC[C@@H](C)[C@@](O)(O3)C(=O)C(=O)N3CCCC[C@H]3C(=O)O2)C[C@H]1OC [I-57, (1R,9S,12S,15R,16E,18R,19R,21R,23S,24E,26E,28E,30S,32S,35R)-1,18-dihydroxy-19-methoxy-12-[(1R)-2-[(1S,3R,4R)-3-methoxy-4-(2-methoxyethoxy)cyclohexyl]-1-methyl-ethyl]-15,17,21,23,29,35-hexamethyl-30-(pyrazin-2-ylmethoxy)-11,36-dioxa-4-azatricyclo[30.3.1.0^4,9]hexatriaconta-16,24,26,28-tetraene-2,3,10,14,20-pentone] |  | Yes |  | 
6 | CO[C@@H]1C[C@H](C[C@@H](C)[C@@H]2CC(=O)[C@H](C)/C=C(\C)[C@@H](O)[C@@H](OC)C(=O)[C@H](C)C[C@H](C)/C=C/C=C/C=C(\C)[C@@H](OCc3cnccn3)C[C@@H]3CC[C@@H](C)[C@@](O)(O3)C(=O)C(=O)N3CCCC[C@H]3C(=O)O2)CC[C@H]1OCCO [I-59, (1R,9S,12S,15R,16E,18R,19R,21R,23S,24E,26E,28E,30S,32S,35R)-1,18-dihydroxy-12-[(1R)-2-[(1S,3R,4R)-4-(2-hydroxyethoxy)-3-methoxy-cyclohexyl]-1-methyl-ethyl]-19-methoxy-15,17,21,23,29,35-hexamethyl-30-(pyrazin-2-ylmethoxy)-11,36-dioxa-4-azatricyclo[30.3.1.0^4,9]hexatriaconta-16,24,26,28-tetraene-2,3,10,14,20-pentone] |  | Yes |  | 
7 | CO[C@@H]1C[C@H](C[C@@H](C)[C@@H]2CC(=O)[C@H](C)/C=C(\C)[C@@H](O)[C@@H](OC)C(=O)[C@H](C)C[C@H](C)/C=C/C=C/C=C(\C)[C@@H](OCC3COCCO3)C[C@@H]3CC[C@@H](C)[C@@](O)(O3)C(=O)C(=O)N3CCCC[C@H]3C(=O)O2)CC[C@H]1OC(=O)NCCN1CCOCC1 (stereo partly drawn) [I-103, [(42S,44R,46R)-4-[(2R)-2-[(28E,30E,32E,33E,38R,39S,40R,41R,43S,45S,47S,48S,50R,51R,61R)-47-(1,4-dioxan-2-ylmethoxy)-50,61-dihydroxy-51-methoxy-38,39,40,41,52,53-hexamethyl-54,55,56,57,58-pentaoxo-76,77-dioxa-64-azatricyclohexatriaconta-28,30,32(52),33(53)-tetraen-48-yl]propyl]-46-methoxy-44-cyclohexyl] N-(2-morpholinoethyl)carbamate] | 1 to 10 |  | ≥ 1000 | Yes
8 | CO[C@@H]1C[C@H](C[C@@H](C)[C@@H]2CC(=O)[C@H](C)/C=C(\C)[C@@H](O)[C@@H](OC)C(=O)[C@H](C)C[C@H](C)/C=C/C=C/C=C(\C)[C@H](OCCOC3COC3)C[C@@H]3CC[C@@H](C)[C@@](O)(O3)C(=O)C(=O)N3CCCC[C@H]3C(=O)O2)CC[C@H]1OC(F)F [I-104, (23E,25E,27E,28E,32R,33S,34R,35R,37S,39S,41R,42S,44R,45R,55R)-42-[(1R)-2-[(1S,3R,4R)-4-(difluoromethoxy)-3-methoxy-cyclohexyl]-1-methyl-ethyl]-44,55-dihydroxy-45-methoxy-32,33,34,35,46,47-hexamethyl-41-[2-(oxetan-3-yloxy)ethoxy]-65,66-dioxa-56-azatricyclohexatriaconta-23,25,27(46),28(47)-tetraene-48,49,50,51,52-pentone] | 10 to 100 |  | ≥ 1000 | Yes
9 | CO[C@@H]1C[C@H](C[C@@H](C)[C@@H]2CC(=O)[C@H](C)/C=C(\C)[C@@H](O)[C@@H](OC)C(=O)[C@H](C)C[C@H](C)/C=C/C=C/C=C(\C)[C@@H](OCCOC3COC3)C[C@@H]3CC[C@@H](C)[C@@](O)(O3)C(=O)C(=O)N3CCCC[C@H]3C(=O)O2)CC[C@H]1OC(F)F [I-105, (23E,25E,27E,28E,32R,33S,34R,35R,37S,39S,41S,42S,44R,45R,55R)-42-[(1R)-2-[(1S,3R,4R)-4-(difluoromethoxy)-3-methoxy-cyclohexyl]-1-methyl-ethyl]-44,55-dihydroxy-45-methoxy-32,33,34,35,46,47-hexamethyl-41-[2-(oxetan-3-yloxy)ethoxy]-65,66-dioxa-56-azatricyclohexatriaconta-23,25,27(46),28(47)-tetraene-48,49,50,51,52-pentone] | 1 to 10 |  | ≥ 1000 | Yes
